target: T1, CCR-3 (Homo sapiens, UniProt P51677); experiment: Calcium mobilization assay (inhibition of eotaxin-induced intracellular calcium mobilization in CCR3/HEK293 cells); type: cell-based; design: expressed in transfected cells; details: 1.25 µg/ml test compound; eotaxin 10 nM; CCR3/HEK293 cells (Table 2b)
T1 sequence (P51677 1-355): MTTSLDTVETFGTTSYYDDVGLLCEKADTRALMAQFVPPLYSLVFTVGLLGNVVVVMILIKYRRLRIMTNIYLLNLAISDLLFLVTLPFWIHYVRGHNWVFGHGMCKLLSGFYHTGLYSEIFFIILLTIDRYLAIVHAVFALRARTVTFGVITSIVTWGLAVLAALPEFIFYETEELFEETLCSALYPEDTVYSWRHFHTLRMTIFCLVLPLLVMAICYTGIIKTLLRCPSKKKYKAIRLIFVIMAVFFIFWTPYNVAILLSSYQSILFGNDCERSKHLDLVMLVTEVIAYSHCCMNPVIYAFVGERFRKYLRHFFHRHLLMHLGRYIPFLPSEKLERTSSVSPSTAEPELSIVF
Procedure: Compounds 93-162 used in this assay were synthesized by using the method described in Example 6.
CCR-3 transfectant cells (CCR3/HEK293) were isolated and resuspended with assay buffer (20 mM HEPES, 125 mM NaCl, 5 mM KCl; 0.5 mM glucose, 1 mM CaCl2, 1 mM MgCl2, 0.1 % BSA). After washing CCR3/HEK293 cells with assay buffer, cells were loaded with Fura-2/AM in assay buffer for 1 hour at room temperature. Cells were washed and resuspended with assay buffer at 5 x 10^6 cells/ml in assay buffer, and placed in a tissue culture plate (Falcon, no. 3296). Test compounds dissolved in DMSO were added to the wells, followed by eotaxin (10 nM at final concentration). Cells were excited at 340 nm and 380 nm in a fluorimeter (ARGUS50, FDSS2000, Hamamatsu Photonics) and the relative ratio of the fluorescence emitted at 510 nm was recorded. For a control, DMSO without a test compound was added. Intracellular calcium mobilization was calculated as described in Krogel C. et al. , FEBS Let. (1989) 243 , 41-46.

| Compound | Ca^2+ mobilization 1.25 µg/ml (inhibition %) |
| --- | --- |
| CC[N+](CCCNC(=O)Nc1ccc(C#N)cc1)(CCOCCOC)CCc1cccc(Cl)c1.[I-] (centres unmarked) [Compound 394, [3-(4-Cyanophenylureido)propyl][2-(3-chlorophenyl)ethyl][2-(2-methoxyehtoxy)ethyl] ethylammonium iodide] | 76% |
| CC[N+](CCCNC(=O)Nc1ccc(OC)cc1)(CCOCCOC)CCc1cccc(Cl)c1.[I-] (centres unmarked) [Compound 438, [3-(4-Methoxyphenylureido)propyl][2-(3-chlorophenyl)ethyl][2-(2-methoxyehtoxy)ethyl] ethylammonium iodide] | 70% |
| CC[N+](CCCNC(=O)Nc1ccc(Cl)c(Cl)c1)(CCOCCOC)CCc1ccc(Cl)cc1.[I-] (centres unmarked) [compound 355] | 63% |
| CC[N+](CCCNC(=O)Nc1ccc(Cl)c(Cl)c1)(CCOCCOC)CCc1cccc(Cl)c1.[I-] (centres unmarked) [compound 356] | 57% |
| CC[N+](CCCNC(=O)Nc1ccc(Cl)c(Cl)c1)(CCOCCOC)CCc1ccc(Cl)cc1Cl.[I-] (centres unmarked) [compound 357] | 57% |
| CC[N+](CCCNC(=O)Nc1ccc(Cl)c(Cl)c1)(CCOCCOC)CCc1ccc(Cl)c(Cl)c1.[I-] (centres unmarked) [compound 358] | 63% |
| CC[N+](CCCNC(=O)Nc1ccc(Cl)c(Cl)c1)(CCc1cccc(Cl)c1)CC1CCC1.[I-] (centres unmarked) [compound 361] | 70% |
| CC[N+](CCCNC(=O)Nc1ccc(Cl)c(Cl)c1)(CCc1ccc(Cl)cc1Cl)CC1CCC1.[I-] (centres unmarked) [compound 362] | 49% |

same assay, conditions: 6.25 µg/ml test compound; eotaxin 10 nM; CCR3/HEK293 cells (Table 2a)

| Compound | Ca^2+ mobilization 6.25 µg/ml (inhibition %) |
| --- | --- |
| CCN(CCCNC(=O)Nc1ccc(Cl)c(C(F)(F)F)c1)C1CCCc2ccccc21 (centres unmarked) [Compound 93] | 50% |
| CSCCCN(CCCNC(=O)Nc1ccc(Cl)c(C(F)(F)F)c1)Cc1ccc2c(c1)OCO2 [Compound 94] | 50% |
| CC(C)CN(CCCNC(=O)Nc1ccc(Cl)c(C(F)(F)F)c1)CCc1ccccc1 [Compound 95] | 55% |
| COc1ccc(CCN(CCCNC(=O)Nc2ccc(Cl)c(C(F)(F)F)c2)CC(C)C)cc1OC [Compound 96] | 53% |
| O=C(NCCCN(C[C@@H]1CCCN1)C1CCCc2ccccc21)Nc1ccccc1-c1ccccc1 (some centres unmarked) [Compound 98] | 51% |
| O=C(O)CCCN(CCCNC(=O)Nc1ccccc1-c1ccccc1)Cc1ccc2c(c1)OCO2 [Compound 101] | 63% |
| COc1cc(CN(CCCNC(=O)Nc2ccccc2-c2ccccc2)CCCSC)cc(OC)c1OC [Compound 103] | 53% |
| CSCCCN(CCCNC(=O)Nc1ccccc1-c1ccccc1)CCc1ccccc1 [Compound 105] | 53% |
| CC(C)CN(CCCNC(=O)Nc1ccccc1-c1ccccc1)CCC(c1ccccc1)c1ccccc1 [Compound 117] | 55% |
| O=C(NCCCN(CCOCc1ccccc1)C1CCCc2ccccc21)Nc1ccc(Br)cc1 (centres unmarked) [Compound 123] | 53% |
| CSCCCN(CCCNC(=O)Nc1ccc(Br)cc1)C1CCCc2ccccc21 (centres unmarked) [Compound 124] | 55% |
| O=C(NCCCN(CCOCc1ccccc1)Cc1ccc2c(c1)OCO2)Nc1ccc(Br)cc1 [Compound 127] | 59% |
| CC(C)CN(CCCNC(=O)Nc1ccc(Br)cc1)Cc1ccc(C(F)(F)F)cc1 [Compound 129] | 50% |
| CSCCCN(CCCNC(=O)Nc1ccc(Br)cc1)Cc1ccc(C(F)(F)F)cc1 [Compound 130] | 51% |
| COc1cc(CN(CCCNC(=O)Nc2ccc(Br)cc2)CCC(C)C)cc(OC)c1OC [Compound 131] | 52% |
| O=C(NCCCN(CCc1ccc(Cl)c(Cl)c1)C[C@@H]1CCCN1)Nc1ccc(Br)cc1 [Compound 134] | 59% |
| COc1ccc(CCN(CCCNC(=O)Nc2cccc(C)c2)CCCSC)cc1OC [Compound 139] | 65% |
| COc1ccc(CCN(CCCNC(=O)Nc2cccc(C)c2)CCCC(=O)O)cc1OC [Compound 140] | 54% |
| CSCCCN(CCCNC(=O)Nc1cccc(C)c1)CCc1ccc(C)cc1 [Compound 141] | 53% |

| Compound | Ca^2+ mobilization 6.25 µg/ml (inhibition %) |
| --- | --- |
| CSCCCN(CCCNC(=O)Nc1cccc(C)c1)CCc1ccc(Cl)c(Cl)c1 [Compound 142] | 58% |
| Cc1cccc(NC(=O)NCCCN(CCc2ccc(Cl)c(Cl)c2)C[C@@H]2CCCN2)c1 [Compound 143] | 64% |
| O=C(NCCCN(CCc1ccccc1)Cc1ccco1)Nc1cccc(Cl)c1 [Compound 144] | 51% |
| CC(C)CCN(CCCNC(=O)Nc1cccc(Cl)c1)Cc1cccs1 [Compound 145] | 53% |
| CCOC(=O)C1CC1CN(CCCNC(=O)Nc1cccc(Cl)c1)Cc1cccs1 (centres unmarked) [Compound 146] | 52% |
| O=C(NCCCN(CCc1c[nH]cn1)CC1CCCCC1)Nc1cccc(Cl)c1 [Compound 147] | 51% |
| O=C(NCCCN(CCOCc1ccccc1)CCc1c[nH]cn1)Nc1cccc(Cl)c1 [Compound 148] | 57% |
| O=C(NCCCN(C[C@@H]1CCCN1)C1CCCc2ccccc21)Nc1cccc(Cl)c1 (some centres unmarked) [Compound 150] | 70% |
| Cc1ccc(CCN(CCCNC(=O)Nc2cccc(Cl)c2)CC(C)C)cc1 [Compound 151] | 54% |
| Cc1ccc(CCN(CCCNC(=O)Nc2cccc(Cl)c2)CCOCc2ccccc2)cc1 [Compound 152] | 54% |
| CCOC(=O)C1CC1CN(CCCNC(=O)Nc1cccc(Cl)c1)CCc1ccc(C)cc1 (centres unmarked) [Compound 153] | 59% |
| O=C(NCCCN(CCc1ccc(Cl)c(Cl)c1)CC1CCCCC1)Nc1cccc(Cl)c1 [Compound 154] | 55% |
| COC(=O)CCCN(CCCNC(=O)Nc1cccc(Cl)c1)CCc1ccc(Cl)c(Cl)c1 [Compound 156] | 63% |
| COc1ccc(NC(=O)NCCCN(CCCSC)C2CCCc3ccccc32)c(OC)c1 (centres unmarked) [Compound 157] | 53% |
| COc1ccc(NC(=O)NCCCN(CCCSC)CCc2ccc(Cl)c(Cl)c2)c(OC)c1 [Compound 158] | 50% |
| COc1ccc(NC(=O)NCCCN(CCOCc2ccccc2)CCc2ccc(OC)c(OC)c2)cc1 [Compound 159] | 51% |
| COC(=O)CCCN(CCCNC(=O)Nc1ccc(Cl)c(Cl)c1)Cc1ccc2c(c1)OCO2 [Compound 160] | 58% |
| O=C(O)CCCN(CCCNC(=O)Nc1cccc2ccccc12)Cc1ccc(C(F)(F)F)cc1 [Compound 161] | 51% |
| CCOC(=O)C1CC1CN(CCCNC(=O)Nc1cccc2ccccc12)CCc1ccccc1 (centres unmarked) [Compound 162] | 50% |

target: T1, CCR-3; experiment: Eotaxin-induced chemotaxis of CCR-3 transfectant cells (CCR3/U937); type: cell-based; design: expressed in transfected cells; host or cells: U937; details: test compound 0.1 µg/ml; eotaxin 1 x 10^-9 M; CCR3/U937 transfectants; 37 °C, 1 hour

| Compound | Chemotaxis Assay 0.1 µg/ml (inhibition %) |
| --- | --- |
| CC[N+](CCF)(CCCNC(=O)Nc1ccccc1)CCc1cccc(Cl)c1.[I-] (centres unmarked) [compound 432] | 96% |
| CC[N+](CCF)(CCCNC(=O)Nc1ccccc1)CCc1ccc(Cl)cc1Cl.[I-] (centres unmarked) [compound 433] | 76% |
| CC[N+](CCF)(CCCNC(=O)Nc1ccccc1)CCc1ccc(Cl)c(Cl)c1.[I-] (centres unmarked) [compound 434] | 100% |
| CC[N+](CCCNC(=O)Nc1ccc(OC)cc1)(CCOCCOC)CCc1cccc(F)c1.[I-] (centres unmarked) [compound 439] | 51% |
| CCC(CC)C[N+](CC)(CCCNC(=O)Nc1ccc(OC)cc1)CCc1cccc(Cl)c1.[I-] (centres unmarked) [compound 448] | 82% |
| CCC(CC)C[N+](CC)(CCCNC(=O)Nc1ccc(OC)cc1)CCc1ccc(Cl)c(Cl)c1.[I-] (centres unmarked) [compound 449] | 96% |
| CCC(CC)C[N+](CC)(CCCNC(=O)Nc1ccc(OC)cc1)CCc1cccc(F)c1.[I-] (centres unmarked) [compound 450] | 35% |
| CC[N+](CCF)(CCCNC(=O)Nc1ccc(OC)cc1)CCc1cccc(Cl)c1.[I-] (centres unmarked) [compound 451] | 92% |
| CC[N+](CCF)(CCCNC(=O)Nc1ccc(OC)cc1)CCc1ccc(Cl)cc1Cl.[I-] (centres unmarked) [compound 452] | 59% |
| CC[N+](CCF)(CCCNC(=O)Nc1ccc(OC)cc1)CCc1ccc(Cl)c(Cl)c1.[I-] (centres unmarked) [compound 453] | 87% |

Reference: EP1200395B1, “UREA DERIVATIVES AS INHIBITORS OF CCR-3 RECEPTOR” (KIRIN BEER KABUSHIKI KAISHA, priority 1999, dated 2001)
